Data as given in patent publication US8242087B2, “Phosphate modified nucleosides useful as substrates for polymerases and as antiviral agents” (priority 2007, dated 2012).

Key:
Format in all cases: biochemical, HIV-1
[1] = molecular target: T1, HIV reverse transcriptase (HIV RT) (Human immunodeficiency virus type 1 group M subtype B, UniProt P03366); test: Single nucleotide incorporation by HIV RT, gel-based, P1/T1 (Examples 2-3)
T1 construct: HIV RT polymerase was purchased from GE Healthcare; purchased GE Healthcare (Amersham Bioscience)
Description: (§1) A typical single nucleotide incorporation and primer extension assays using HIV RT polymerase was carried out similar to one described in the literature. HIV RT polymerase was purchased from GE Healthcare and was supplied as either 12 or 30 U/μL stock solution. The final concentration of HIV RT in a reaction mixture was 0.03-0.003 U/μL. A primer/template duplex mixture was prepared by combining appropriate amounts of a 5′-^33P-labeled primer (P1) and a template in 1:2 molar ratio to provide a 4× solution with 0.5 μM primer concentration. The polymerase reactions were carried out in a 5×RT buffer containing 250 mM TRIS.HCL, 250 mM KCl, 50 mM MgCl2, 2.5 mM spermidine, 50 mM DTT, pH 8.3. For the single nucleotide incorporation assay, a P1/T1 primer-template pair was used whereas the primer extension study was performed with P1/T3 and P1/T5 primer-template pairs.
Briefly, a mixture containing 5 μL of the 4× primer/DNA duplex solution and 5 μL of 4× polymerase solution was pre-incubated at 37° C. for 2 minutes to ensure formation a DNA polymerase/DNA duplex complex. Simultaneously, 2× solutions of dNTP to provide final concentrations of 100 μM, 200 μM, 500 μM and 1 mM were also pre-incubated at 37° C. for 2 minutes as well. The polymerase reaction in a total volume of 20 μL was initiated by addition of 10 μL of the 2× dNTP solution to the DNA polymerase/DNA duplex mixture. The reactions were run at 37° C. and aliquots (2.5 μL) were removed at specified time points and mixed with 10 μL of a quenching buffer containing 80% formamide, 2 mM EDTA, 1×TBE. Quenched reactions were analyzed by loading 2 μL of a reaction sample onto a 20% denaturing polyacrylamide:gel (19:1 acrylamide:bisacrylamide, 7M urea, 0.4 mm×30 cm×40 cm) made in 1×TBE buffer (90 mM Tris-borate, 2 mM EDTA, pH 8.3). The gel was pre-equilibrated for 2 hours before loading and the reactions were run along with a tracking dye marker containing bromophenol blue (BB) and xylene cyanol (XC) until the BB dye had run ⅔ of the total gel length. For visualization, gels were scanned using a Cyclone Phosphoroimager.

[2] = molecular target: T2, HIV RT (Human immunodeficiency virus type 1 group M subtype B, UniProt P03366); test: Primer extension by HIV RT (P1/T3, P1/T5); conditions: T3 template
T2 construct: HIV RT polymerase was purchased from GE Healthcare; purchased GE Healthcare (Amersham Bioscience)
Description: as §1
Primer extension study with HIV RT and Therminator DNA polymerase was performed in a fashion similar to the single nucleotide incorporation experiments. Two sets of primer/template complexes were used: P1/T3 and P1/T5.

[3] = molecular target: T2, HIV RT; test: Steady state kinetics of single nucleotide incorporation by HIV RT (P1/T1)
Description: The steady steate kinetics of a single nucleotide incorporation of an amino acid phosphoramidate (AA-dAMP) and of a natural nucleoside triphosphate (dATP) was determined by the gel-based polymerase assay. In all the experiments, the template T1 and the primer P1 were used (Table 1). The primer and template in 1:2 molar ratio were hybridized in a buffer containing 20 mM TRIS.HCl, 10 mM KCl, 2 mM MgSO4, 0.1% Triton X-100, pH 8.8 and used in an amount to provide 125 nM concentration of the primer in each 12 μL reaction. The range of concentrations for amino acid phosphoramidates was optimized according to a Km value for the incorporation of an individual nucleotide. In the case of HIV RT (Amersham Bioscience (GE Healthcare), 30 U/μL), reaction mixtures containing the enzyme in concentration to attain 5-20% conversion and appropriate substrate concentration (nucleoside phosphoramidate or natural dNTP) were incubated at 37° C. and run for 8-10 different time intervals. Kinetic analysis of single nucleotide incorporation by Therminator DNA polymerase (NEB, 2 U/μL) was performed similarly except the incubations and polymerase reactions, which were carried out at 70° C. To prevent solvent condensation/evaporation, the reaction mixtures were topped with mineral oil. The reactions were quenched by addition of the buffer containing 80% formamide, 2 mM EDTA, 1×TBE buffer. The analysis of polymerase reactions was performed by polyacrylamide gel electrophoresis (20% (19:1 mono:bis), 7M urea, 30 cm×40 cm×0.4 mm). The relative band intensities were measured using OptiQuant software. The rates of incorporation (V) were calculated based on the percentage of the extension production (n+1 band). The kinetic parameters (Vmax and Km) were determined by plotting V (pmol/min·U) versus substrate concentration and fitting the data point to a rectangular hyperbola using GraphPad Prism software.

2′-deoxy-adenosine-5′-aspartyl-phosphoramidate [Compound 1]
conversion to a n+1 strand ([1]; 500 μM nucleotide concentration, 60 min, P1/T1): 90%
incorporation ([1]; substrate concentration decreased 10 fold (from 500 μM)): 24.1%
primer extension product [2]: extend a primer with three adenine nucleobases (n+3 product)
(n+3) product ([2]; 60 minutes, 500 μM substrate): 5.2%
n+2 product ([2]; 60 minutes, 500 μM substrate): 56.3%
Km, fold higher as compared to dATP [3]: 400 fold
Vmax, fold lower than natural substrate dATP [3]: 3 fold
specificity (Vmax/Km), fold reduced vs natural substrate [3]: 1300 fold
Km ([3]; P1/T1, 37° C.): 185 ± 24.5 µM
Vmax ([3]; P1/T1, 37° C.): 2.63 ± 0.13 pmol/min · U
